Reference: patent publication US12404268B2, “2-heteroaryl aminoquinazolinone derivative” (Sumitomo Pharma Co., Ltd., priority 2020, dated 2025)

What was measured:
[1] = test system: male Slc:ddY mice (pentetrazol-induced clonic seizure); test: Model subcutaneously injected with pentetrazol (minimum seizure model, scPTZ); format: in vivo, mouse; settings: 85 mg/kg pentetrazol s.c. 1 hour after oral dosing, observed 30 minutes
Experimental: Evaluation of Model Subcutaneously Injected with Pentetrazol (Minimum Seizure Model, scPTZ)
This test evaluates the antiseizure effect of a medicament. The animal model used in this test is a phenotype of generalized absence seizure or myoclonic seizure. The test compound was orally administered to male Slc:ddY mice (group of five, body weight: 20 to 30 g), and 85 mg of pentetrazol/kg was subcutaneously administered 1 hour later. The presence/absence of expression of clonic seizure during 30 minutes was then observed. The dose at which […] (ED50) was calculated. 0.5% methylcellulose solution was administered for the control.

[2] = test system: SCN1A loss-of-function genetic mutation mice (epileptic spike); test: Evaluation of epileptic spike using SCN1A-mutated animal; format: in vivo, mouse; settings: F1 SCN1A-mutated mice; spike frequency over 3 hours before and after administration
Experimental: Evaluation of Epileptic Spike Using SCN1A-Mutated Animal
This test evaluates the inhibitory effect of a medicament on epileptic spike expressed with an SCN1A loss-of-function genetic mutation.
Febrile seizure was induced in the SCN1A-mutated mice (6 to 10 week old) described above from increasing the body temperature by placing and continuously incubating the mice in a plastic chamber whose internal temperature was increased by incubation using a warm bath of about 43° C. After two weeks from inducing febrile seizure, a head mount (cat #8201-SS, Pinnacle Technology) was mounted on the head of the mice. Two weeks after mounting the head mount, the F1 SCN1A loss-of-function genetic mutation mice (25 to 32 g) were connected to a seizure EEG recording system (Pinnacle Technology), and the test compound was administered. The epileptic spike frequency over 3 hours before and after administration of the compound was measured, and the dose at which epileptic spike frequency is suppressed to 50% after the administration (ED50) was calculated.

[3] = test system: neurons induced to differentiate from SCN1A gene deficient human iPS cells; test: Test for measuring hyperexcitation suppression activity (spontaneous calcium oscillation frequency); format: cell-based; settings: Neuron; for inhibition at 1 µM / inhibition at 0.1 µM / inhibition at 10 µM: Homo sapiens, read-out: inhibition rate; for IC50: SCN1A gene deficient human iPS cell-derived neurons, FLIPR Calcium 6, FDSS7000EX, read-out: IC50 (50% inhibitory concentration, frequency of spontaneous calcium oscillation)
Procedure, shortened: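 SCN1A-deficient iPS-derived neurons used from day 60 of differentiation, loaded 30 min with Calcium 6 probe. Compounds at final 0.1–100 μM; spontaneous calcium oscillation frequency recorded on FDSS7000EX, with the last 2 of 8 min post-addition expressed relative to the 2 min baseline.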

male Slc:ddy mice = test: Rotarod evaluation (motor coordination); format: in vivo, mouse; settings: rotarod 15 rpm, 50 minutes after oral dosing, 180 seconds
Experimental: The test evaluates the effect of suppressing the ability of motor coordination of a medicament. Male Slc:ddy mice (body weight: 20 to 30 g) were trained to walk for 5 minutes with a rotarod apparatus (apparatus for rotating a cylindrical bar with a 4 cm diameter, 12 rpm) on the day of the test. A test compound was orally administered to a group of 5 mice. […] Animals that fell off within 180 seconds due to incoordination were counted. […] 0.5% methylcellulose solution was administered for the control.

[4] = test system: male Slc:ddY mice (electroshock-induced tonic extensor seizure); test: Maximal electroshock seizure (MES) model; format: in vivo, mouse; settings: corneal stimulation 60 Hz, 50 mA, 0.2 seconds 1 hour after oral dosing
Experimental: Evaluation of Maximal Electroshock Seizure (MES) Model
This test evaluates the antiseizure effect of a medicament in the same manner as Test Example 3. The animal model used in this test is a phenotype of generalized tonic-clonic seizure and secondary generalized partial seizure. The test compound was orally administered to male Slc:ddY mice (group of five, body weight: 20 to 30 g), and electrical stimulation (60 Hz, 50 mA, 0.2 seconds) was applied through the cornea 1 hour later. Suppression of induced expression of tonic extensor seizure of the rear limb was observed. The dose at which […] (ED50) was calculated. 0.5% methylcellulose solution was administered for the control.

Row | Structure (SMILES) | ED50 (clonic seizure) [1] | ED50 (dose at which epileptic spike frequency is suppressed to 50%) [2] | inhibition at 1 µM [3] | TD50 (dosage at which 50% of animals fall off) (male Slc:ddy mice) | ED50 (tonic extensor seizure) [4] | IC50 [3] | inhibition at 0.1 µM [3] | inhibition at 10 µM [3]
1 | N#Cc1ccc2nc(Nc3cccnc3)n(-c3ccccc3)c(=O)c2c1 [Example 3, 4-oxo-3-phenyl-2-(pyridin-3-ylamino)-3,4-dihydroquinazoline-6-carbonitrile] | 0.74 mg/kg, p.o. | 0.66 mg/kg, p.o. | 97% | 2.0 mg/kg, p.o. | – | – | – | –
2 | O=c1c2cc(F)ccc2nc(Nc2cccnc2)n1-c1ccccc1 [Example 12, 6-fluoro-3-phenyl-2-(pyridin-3-ylamino)quinazolin-4(3H)-one] | 0.25 mg/kg, p.o. | 0.18 mg/kg, p.o. | – | 1.8 mg/kg, p.o. | 0.56 mg/kg, p.o. | 0.2 µM | – | –
3 | O=c1c2ccccc2nc(Nc2cccnc2)n1-c1ccccc1 [Example 14, 3-phenyl-2-(pyridin-3-ylamino)quinazolin-4(3H)-one] | 4.17 mg/kg, p.o. | 5.83 mg/kg, p.o. | – | 7.38 mg/kg, p.o. | – | 1.8 µM | – | –
4 | O=c1c2cc(F)cc(F)c2nc(Nc2cccnc2)n1-c1ccccc1 [Example 32, 6,8-difluoro-3-phenyl-2-(pyridin-3-ylamino)quinazolin-4(3H)-one] | 4.17 mg/kg, p.o. | 1.48 mg/kg, p.o. | 80% | 8.83 mg/kg, p.o. | – | – | – | –
5 | O=c1c2cc(F)ccc2nc(Nc2cncc(F)c2)n1-c1ccccc1 [Example 40, 6-fluoro-2-((5-fluoropyridin-3-yl)amino)-3-phenylquinazolin-4(3H)-one] | 0.27 mg/kg, p.o. | 0.12 mg/kg, p.o. | 100% | 1.8 mg/kg, p.o. | 0.56 mg/kg, p.o. | – | – | –
6 | Cc1ccccc1-n1c(Nc2cccnc2)nc2ccc(C#N)cc2c1=O [Example 109, 4-oxo-2-(pyridin-3-ylamino)-3-(o-tolyl)-3,4-dihydroquinazoline-6-carbonitrile] | 0.25 mg/kg, p.o. | 0.19 mg/kg, p.o. | – | 2.0 mg/kg, p.o. | – | – | 59% | –
7 | Cc1ccccc1-n1c(Nc2cncc(F)c2)nc2ccc(C#N)cc2c1=O [Example 114, 2-((5-fluoropyridin-3-yl)amino)-4-oxo-3-(o-tolyl)-3,4-dihydroquinazoline-6-carbonitrile] | 0.065 mg/kg, p.o. | 0.044 mg/kg, p.o. | – | 0.2 mg/kg, p.o. | – | – | 55% | –
8 | O=c1c2cc(Cl)ccc2nc(Nc2ncns2)n1-c1ccccc1 [Example 230] | – | – | – | – | – | – | – | 2%
9 | Cn1cnc(Nc2nc3ccccc3c(=O)n2-c2ccccc2)c1 [Example 231] | – | – | – | – | – | > 10 µM | – | –
10 | O=c1c2ccccc2nc(Nc2ccon2)n1-c1ccccc1 [Example 232] | – | – | – | – | – | – | – | 73%
